Test results from article PMC11314561, “Design and Synthesis of Novel Aminoindazole-pyrrolo[2,3-b]pyridine Inhibitors of IKKα That Selectively Perturb Cellular Non-Canonical NF-κB Signalling” (Molecules, 2024).

How the values were obtained:
Assay in all cases: kinase panel
Format in all cases: biochemical
[1] = biological target: CDK5/p25(h) (Homo sapiens, UniProt Q00535)
Text: (§1) We profiled three compounds from the series across the kinome (Table S1).
(§2) Ta b l e S1. The % inhibition of compounds 4, 5r [SU1261], and 6g [SU1349] against a
(§3) panel of kinase enzymes. We proϐiled three compounds from the series across 231
(§4) kinases. For SU1349, given its structural similarity with SU1261, we selected 98 from the
(§5) Tested kinase % inhibiƟon

[2] = biological target: T1, SAPK4(h) (Homo sapiens, UniProt O15264)
T1 sequence (O15264 1-365): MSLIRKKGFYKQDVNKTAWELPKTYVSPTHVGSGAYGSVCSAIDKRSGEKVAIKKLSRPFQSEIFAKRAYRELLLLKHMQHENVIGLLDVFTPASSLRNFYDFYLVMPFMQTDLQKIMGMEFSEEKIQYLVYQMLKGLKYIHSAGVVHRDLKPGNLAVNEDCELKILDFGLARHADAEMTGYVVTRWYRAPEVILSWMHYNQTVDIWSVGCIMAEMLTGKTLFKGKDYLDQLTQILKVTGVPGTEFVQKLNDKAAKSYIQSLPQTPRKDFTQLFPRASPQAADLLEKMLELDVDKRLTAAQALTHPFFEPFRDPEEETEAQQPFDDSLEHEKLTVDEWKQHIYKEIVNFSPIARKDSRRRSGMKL
Text: as §1, §2, §3, §4, §5

[3] = biological target: T2, ARK5(h) (Homo sapiens, UniProt O60285)
T2 sequence (O60285 1-661): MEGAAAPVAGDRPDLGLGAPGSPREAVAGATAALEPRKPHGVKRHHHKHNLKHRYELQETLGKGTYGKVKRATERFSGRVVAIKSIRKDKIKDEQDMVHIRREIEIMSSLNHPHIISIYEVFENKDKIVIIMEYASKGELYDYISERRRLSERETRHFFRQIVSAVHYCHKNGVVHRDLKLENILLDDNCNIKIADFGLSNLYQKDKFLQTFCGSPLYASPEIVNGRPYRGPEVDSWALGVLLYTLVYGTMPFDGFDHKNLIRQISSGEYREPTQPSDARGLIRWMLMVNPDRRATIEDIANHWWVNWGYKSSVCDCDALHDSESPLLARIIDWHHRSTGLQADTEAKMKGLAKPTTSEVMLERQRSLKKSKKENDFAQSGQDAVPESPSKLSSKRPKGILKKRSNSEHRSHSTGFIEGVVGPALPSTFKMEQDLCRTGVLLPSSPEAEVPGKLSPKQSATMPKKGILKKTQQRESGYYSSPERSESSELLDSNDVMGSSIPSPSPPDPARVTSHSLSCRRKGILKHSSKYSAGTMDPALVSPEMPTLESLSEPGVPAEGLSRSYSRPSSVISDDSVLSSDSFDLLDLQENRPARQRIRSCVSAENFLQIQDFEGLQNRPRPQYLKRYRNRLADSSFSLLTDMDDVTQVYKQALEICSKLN
Text: as §1, §2, §3, §4, §5

[4] = biological target: T3, ZAP-70(h) (Homo sapiens, UniProt P43403)
T3 sequence (P43403 1-619): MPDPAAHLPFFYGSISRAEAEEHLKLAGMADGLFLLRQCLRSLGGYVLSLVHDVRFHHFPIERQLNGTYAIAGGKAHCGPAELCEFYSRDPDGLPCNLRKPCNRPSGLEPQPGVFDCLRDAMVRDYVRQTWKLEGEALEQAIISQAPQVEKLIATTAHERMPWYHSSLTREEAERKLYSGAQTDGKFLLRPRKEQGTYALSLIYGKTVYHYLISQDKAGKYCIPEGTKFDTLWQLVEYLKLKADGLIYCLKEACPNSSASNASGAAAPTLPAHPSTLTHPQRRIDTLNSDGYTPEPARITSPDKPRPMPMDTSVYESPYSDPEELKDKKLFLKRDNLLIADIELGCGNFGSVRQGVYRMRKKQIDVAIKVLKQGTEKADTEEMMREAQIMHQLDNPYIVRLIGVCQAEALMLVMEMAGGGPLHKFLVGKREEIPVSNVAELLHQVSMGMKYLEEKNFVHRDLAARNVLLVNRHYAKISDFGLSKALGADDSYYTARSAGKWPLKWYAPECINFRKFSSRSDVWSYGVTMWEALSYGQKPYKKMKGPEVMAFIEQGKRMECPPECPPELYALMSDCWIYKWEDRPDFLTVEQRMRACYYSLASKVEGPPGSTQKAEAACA
Text: as §1, §2, §3, §4, §5

[5] = biological target: CaMKIδ(h) (Homo sapiens, UniProt Q8IU85)
Sequence of CaMKIδ(h) (Q8IU85 whole entry): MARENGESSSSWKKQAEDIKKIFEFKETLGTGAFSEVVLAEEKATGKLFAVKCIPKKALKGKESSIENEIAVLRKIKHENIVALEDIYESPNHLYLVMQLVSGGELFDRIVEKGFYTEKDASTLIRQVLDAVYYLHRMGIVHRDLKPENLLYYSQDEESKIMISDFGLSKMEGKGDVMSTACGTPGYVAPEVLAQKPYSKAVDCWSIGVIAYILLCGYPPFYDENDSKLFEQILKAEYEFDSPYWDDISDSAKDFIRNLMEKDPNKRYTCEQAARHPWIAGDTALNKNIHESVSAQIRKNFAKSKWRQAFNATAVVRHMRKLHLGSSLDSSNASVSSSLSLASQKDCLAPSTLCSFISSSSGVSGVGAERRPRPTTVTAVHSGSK
Text: as §1, §2, §3, §4, §5

[6] = biological target: KDR(h) (Homo sapiens, UniProt P35968)
Sequence of KDR(h) (P35968 20-1356): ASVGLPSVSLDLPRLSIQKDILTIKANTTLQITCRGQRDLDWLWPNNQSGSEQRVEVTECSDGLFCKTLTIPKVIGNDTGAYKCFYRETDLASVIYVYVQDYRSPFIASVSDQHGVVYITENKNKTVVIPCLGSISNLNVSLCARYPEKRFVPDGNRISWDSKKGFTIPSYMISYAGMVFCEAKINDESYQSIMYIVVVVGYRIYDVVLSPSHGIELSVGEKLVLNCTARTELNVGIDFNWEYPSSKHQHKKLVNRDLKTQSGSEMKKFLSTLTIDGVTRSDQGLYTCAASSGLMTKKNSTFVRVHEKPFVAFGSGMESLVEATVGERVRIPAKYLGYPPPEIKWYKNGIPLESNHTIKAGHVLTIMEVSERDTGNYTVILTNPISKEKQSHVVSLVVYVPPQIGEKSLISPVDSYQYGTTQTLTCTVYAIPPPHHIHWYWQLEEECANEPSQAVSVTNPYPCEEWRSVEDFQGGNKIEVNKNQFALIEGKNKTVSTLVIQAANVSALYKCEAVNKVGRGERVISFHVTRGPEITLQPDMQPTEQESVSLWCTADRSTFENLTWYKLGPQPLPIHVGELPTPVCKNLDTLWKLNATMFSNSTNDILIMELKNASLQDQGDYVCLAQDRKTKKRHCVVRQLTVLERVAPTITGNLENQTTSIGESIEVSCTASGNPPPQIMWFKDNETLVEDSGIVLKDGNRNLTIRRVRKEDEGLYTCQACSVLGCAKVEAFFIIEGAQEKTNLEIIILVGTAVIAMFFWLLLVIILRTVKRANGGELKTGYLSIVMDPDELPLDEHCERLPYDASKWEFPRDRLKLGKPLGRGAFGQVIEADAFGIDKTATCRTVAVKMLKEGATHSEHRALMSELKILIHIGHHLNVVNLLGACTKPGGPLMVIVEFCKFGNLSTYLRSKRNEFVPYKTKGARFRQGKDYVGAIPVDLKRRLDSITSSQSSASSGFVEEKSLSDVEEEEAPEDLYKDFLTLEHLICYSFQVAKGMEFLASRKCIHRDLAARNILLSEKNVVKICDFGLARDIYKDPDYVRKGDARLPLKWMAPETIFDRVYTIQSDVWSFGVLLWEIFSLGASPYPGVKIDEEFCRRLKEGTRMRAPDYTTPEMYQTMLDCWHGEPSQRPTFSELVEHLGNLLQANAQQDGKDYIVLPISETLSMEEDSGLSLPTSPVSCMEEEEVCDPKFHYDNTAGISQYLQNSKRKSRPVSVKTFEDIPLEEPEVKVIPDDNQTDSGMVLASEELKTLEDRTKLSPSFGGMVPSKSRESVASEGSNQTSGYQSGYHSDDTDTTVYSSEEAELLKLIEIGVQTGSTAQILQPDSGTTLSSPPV
Text: as §1, §2, §3, §4, §5

[7] = biological target: Fes(h) (Homo sapiens, UniProt P07332)
Sequence of Fes(h) (P07332 whole entry): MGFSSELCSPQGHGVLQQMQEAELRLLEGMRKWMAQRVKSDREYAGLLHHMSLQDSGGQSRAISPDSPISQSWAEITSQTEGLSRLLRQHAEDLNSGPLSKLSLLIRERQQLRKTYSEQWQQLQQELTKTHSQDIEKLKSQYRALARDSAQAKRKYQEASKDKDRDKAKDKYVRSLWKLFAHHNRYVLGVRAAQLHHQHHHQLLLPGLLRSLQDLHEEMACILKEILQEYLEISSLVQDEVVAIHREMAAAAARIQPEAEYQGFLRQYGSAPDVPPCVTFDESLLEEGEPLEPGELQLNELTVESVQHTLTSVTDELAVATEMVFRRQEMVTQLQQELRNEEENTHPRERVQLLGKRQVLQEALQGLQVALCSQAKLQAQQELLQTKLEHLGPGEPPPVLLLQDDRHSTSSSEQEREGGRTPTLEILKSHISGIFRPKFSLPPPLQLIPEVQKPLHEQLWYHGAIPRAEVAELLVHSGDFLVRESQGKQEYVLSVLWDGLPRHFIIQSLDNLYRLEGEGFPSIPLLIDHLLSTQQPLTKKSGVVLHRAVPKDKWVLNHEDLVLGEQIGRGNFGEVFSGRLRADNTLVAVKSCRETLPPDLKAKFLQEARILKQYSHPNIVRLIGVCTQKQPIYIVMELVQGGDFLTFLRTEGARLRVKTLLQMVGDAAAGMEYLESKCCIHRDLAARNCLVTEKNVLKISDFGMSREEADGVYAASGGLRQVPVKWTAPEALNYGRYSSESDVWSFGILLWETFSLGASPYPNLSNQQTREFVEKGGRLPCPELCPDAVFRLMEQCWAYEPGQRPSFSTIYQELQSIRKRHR
Text: as §1, §2, §3, §4, §5

[8] = biological target: T4, NEK2(h) (Homo sapiens, UniProt P51955)
T4 sequence (P51955 1-445): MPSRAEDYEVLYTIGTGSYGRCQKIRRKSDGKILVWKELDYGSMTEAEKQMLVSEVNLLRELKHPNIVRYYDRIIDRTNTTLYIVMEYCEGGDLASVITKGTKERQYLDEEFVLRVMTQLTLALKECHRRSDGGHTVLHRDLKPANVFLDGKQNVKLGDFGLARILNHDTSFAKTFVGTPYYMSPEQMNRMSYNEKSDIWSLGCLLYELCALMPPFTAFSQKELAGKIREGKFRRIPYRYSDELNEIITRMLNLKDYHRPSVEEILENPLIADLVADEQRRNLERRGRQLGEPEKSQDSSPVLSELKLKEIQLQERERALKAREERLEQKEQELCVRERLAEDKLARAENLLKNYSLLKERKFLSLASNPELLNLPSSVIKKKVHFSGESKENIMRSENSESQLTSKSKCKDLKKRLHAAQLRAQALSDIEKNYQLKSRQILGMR
Text: as §1, §2, §3, §4, §5

[9] = biological target: CaMKI(h) (Homo sapiens, UniProt Q14012)
Sequence of CaMKI(h) (Q14012 whole entry): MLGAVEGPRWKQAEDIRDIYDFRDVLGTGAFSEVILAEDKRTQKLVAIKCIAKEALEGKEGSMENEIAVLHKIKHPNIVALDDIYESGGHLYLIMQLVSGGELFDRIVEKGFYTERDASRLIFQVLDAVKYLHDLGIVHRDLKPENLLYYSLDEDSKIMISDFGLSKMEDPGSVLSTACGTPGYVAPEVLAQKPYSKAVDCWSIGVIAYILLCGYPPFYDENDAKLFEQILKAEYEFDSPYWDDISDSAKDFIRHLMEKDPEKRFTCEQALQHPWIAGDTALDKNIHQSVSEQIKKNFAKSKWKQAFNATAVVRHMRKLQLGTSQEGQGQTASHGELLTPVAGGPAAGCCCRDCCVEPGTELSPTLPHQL
Text: as §1, §2, §3, §4, §5

Sequence of CDK5/p25(h) (Q00535 whole entry): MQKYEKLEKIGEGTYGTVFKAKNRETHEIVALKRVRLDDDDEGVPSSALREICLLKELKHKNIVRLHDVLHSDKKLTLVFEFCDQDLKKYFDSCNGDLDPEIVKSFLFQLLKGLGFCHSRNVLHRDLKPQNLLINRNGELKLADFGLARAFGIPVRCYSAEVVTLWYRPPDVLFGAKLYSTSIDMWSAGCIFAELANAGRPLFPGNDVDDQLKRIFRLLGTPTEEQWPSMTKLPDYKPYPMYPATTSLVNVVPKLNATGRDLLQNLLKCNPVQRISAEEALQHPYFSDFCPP
Sequence of CDK5/p25(h) (Q15078 99-307 partner limits assumed): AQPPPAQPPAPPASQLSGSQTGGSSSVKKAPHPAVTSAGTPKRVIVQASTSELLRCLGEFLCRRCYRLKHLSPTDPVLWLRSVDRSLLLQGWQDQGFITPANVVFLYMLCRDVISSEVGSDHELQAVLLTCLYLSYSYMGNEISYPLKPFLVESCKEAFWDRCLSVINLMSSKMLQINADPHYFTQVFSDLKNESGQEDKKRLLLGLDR

Row | SMILES | inhibition at 1 µM [1] | inhibition at 1 µM [2] | inhibition at 1 µM [3] | inhibition at 1 µM [4] | inhibition at 1 µM [5] | inhibition at 1 µM [6] | inhibition at 1 µM [7] | inhibition at 1 µM [8] | inhibition at 1 µM [9]
1 | Nc1n[nH]c2ccc(-c3ccnc4[nH]c(-c5ccccc5)cc34)cc12 [Compound 4] | 101% | 87% | 87% | -8% | -8% | 93% | 80% | 5% | 9%
2 | Nc1n[nH]c2ccc(-c3ccnc4[nH]c(-c5cccc(OCc6ccccc6)c5)cc34)cc12 [Compound 5r [SU1261]] | 96% | 18% | 33% | -27% | 9% | 42% | 50% | 4% | -6%
3 | Nc1n[nH]c2ccc(-c3ccnc4[nH]c(-c5ccnc(OCc6ccccc6)c5)cc34)cc12 [Compound 6g [SU1349]] | 92% | 10% | 3% | -22% | 24% | 26% | -31% | 8% | 1%
